ChEMBL document CHEMBL1201862, “PubChem BioAssay data set” (2004)
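Exposure lasted 48 hours, with cells grown in 96-well plates and compounds tested at five concentrations. The concentration for 50% growth inhibition is given as GI50.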 Active and inactive are the calls of the source. Rule as the data show it: active = GI50 up to about 1.1 µM and inactive = higher.

How the values were obtained:
Experiment in all cases: growth of human tumour cells (NCI), 48 h
HCT-15 = tested on: HCT-15
HCT-116 = tested on: HCT-116
SK-MEL-28 = tested on: SK-MEL-28
COLO 205 = tested on: COLO 205
MDA-MB-435 = tested on: MDA-MB-435
A549 = tested on: A549
SF-295 = tested on: SF-295
786-0 = tested on: 786-0
ACHN = tested on: ACHN
SF-268 = tested on: SF-268
SN12C = tested on: SN12C
CCRF-CEM = tested on: CCRF-CEM
OVCAR-8 = tested on: OVCAR-8
UACC-62 = tested on: UACC-62
A498 = tested on: A498
BT-549 = tested on: BT-549
SK-MEL-5 = tested on: SK-MEL-5
SR = tested on: SR
SK-OV-3 = tested on: SK-OV-3
SNB-75 = tested on: SNB-75

SMILES | GI50 (HCT-15) [µM] | GI50 (HCT-116) | GI50 (SK-MEL-28) | GI50 (COLO 205) | GI50 (MDA-MB-435) | GI50 (A549) | GI50 (SF-295) | GI50 (786-0) | GI50 (ACHN) | GI50 (SF-268) | GI50 (SN12C) | GI50 (CCRF-CEM) | GI50 (OVCAR-8) | GI50 (UACC-62) | GI50 (A498) | GI50 (BT-549) | GI50 (SK-MEL-5) | GI50 (SR) | GI50 (SK-OV-3) | GI50 (SNB-75)
NC(=O)Nc1ccc(S(=O)(=O)Nc2ccc(S(N)(=O)=O)cc2)cc1 | > 100 | > 100 µM (inactive) | > 100 µM (inactive) | > 100 µM (inactive) | > 100 µM (inactive) | > 100 µM (inactive) | > 100 µM (inactive) | > 100 µM (inactive) | > 100 µM (inactive) | 0.649 µM (active) | > 100 µM (inactive) | > 100 µM (inactive) | > 100 µM (inactive) | > 100 µM (inactive) | > 100 µM (inactive) | > 100 µM (inactive) | > 100 µM (inactive) | – | – | –
CN1CCN(c2ccc3[nH]c(-c4ccc5[nH]c(-c6ccc(O)cc6)nc5c4)nc3c2)CC1 | 224 | 13.5 µM (inactive) | 19.8 µM (inactive) | – | 8.28 µM (inactive) | 332 µM (inactive) | – | 228 µM (inactive) | 281 µM (inactive) | 70.8 µM (inactive) | 127 µM (inactive) | – | – | – | 241 µM (inactive) | 455 µM (inactive) | 11.8 µM (inactive) | 28.1 µM (inactive) | 664 µM (inactive) | 353 µM (inactive)
Cc1c(CNc2ccc(Cl)c(C(=O)NC(CC(=O)O)C(=O)O)c2)ccc2nc(N)nc(N)c12 (centres undefined) | 0.0265 | < 0.01 µM (active) | 10.1 µM (inactive) | 4.66 µM (inactive) | < 0.01 µM (active) | 1.33 µM (inactive) | 0.126 µM (active) | < 0.01 µM (active) | 0.0262 µM (active) | 0.209 µM (active) | 0.57 µM (active) | 0.0753 µM (active) | 0.0399 µM (active) | 0.0501 µM (active) | 1.52 µM (inactive) | 33.3 µM (inactive) | 0.148 µM (active) | – | 33.7 µM (inactive) | > 32.3 µM (inactive)
CC(C)(C)CNCCO | > 100 | > 100 µM (inactive) | > 100 µM (inactive) | > 100 µM (inactive) | > 100 µM (inactive) | > 100 µM (inactive) | > 100 µM (inactive) | > 100 µM (inactive) | > 100 µM (inactive) | > 100 µM (inactive) | > 100 µM (inactive) | > 100 µM (inactive) | > 100 µM (inactive) | > 100 µM (inactive) | > 100 µM (inactive) | > 100 µM (inactive) | > 100 µM (inactive) | – | > 100 µM (inactive) | > 100 µM (inactive)
C=CCSc1nn(CC=C)cc2ncnc1-2 | > 100 | > 100 µM (inactive) | > 100 µM (inactive) | > 100 µM (inactive) | > 100 µM (inactive) | > 100 µM (inactive) | > 100 µM (inactive) | > 100 µM (inactive) | > 100 µM (inactive) | > 100 µM (inactive) | > 100 µM (inactive) | > 100 µM (inactive) | > 100 µM (inactive) | > 100 µM (inactive) | > 100 µM (inactive) | > 100 µM (inactive) | > 100 µM (inactive) | > 100 µM (inactive) | – | > 100 µM (inactive)
N#Cc1ccc(OCc2nc3cc(C(F)(F)F)ccc3nc2-c2ccccc2)cc1 | > 10 | > 100 µM (inactive) | > 100 µM (inactive) | > 100 µM (inactive) | > 100 µM (inactive) | > 100 µM (inactive) | > 100 µM (inactive) | > 100 µM (inactive) | > 100 µM (inactive) | > 100 µM (inactive) | > 100 µM (inactive) | 57.7 µM (inactive) | > 100 µM (inactive) | > 100 µM (inactive) | > 100 µM (inactive) | > 100 µM (inactive) | > 100 µM (inactive) | 70.5 µM (inactive) | – | > 100 µM (inactive)
O=C(/C=C\c1ccc([N+](=O)[O-])cc1)c1ccccc(=O)c1O | 0.169 | 0.659 µM (active) | 1.41 µM (inactive) | 0.397 µM (active) | 0.989 µM (active) | 0.51 µM (active) | 1.42 µM (inactive) | 0.769 µM (active) | 1.01 µM (active) | 0.977 µM (active) | 4.81 µM (inactive) | < 0.0319 µM (active) | 0.9 µM (active) | 1.14 µM (inactive) | 2.84 µM (inactive) | 1.72 µM (inactive) | 0.558 µM (active) | – | 4.3 µM (inactive) | 1.29 µM (inactive)
COc1cccc(-n2nnc3c(N)nc(N)nc32)c1 | > 100 | > 100 µM (inactive) | > 100 µM (inactive) | > 100 µM (inactive) | > 100 µM (inactive) | > 100 µM (inactive) | > 100 µM (inactive) | > 100 µM (inactive) | 53.7 µM (inactive) | 5.96 µM (inactive) | > 100 µM (inactive) | > 100 µM (inactive) | > 100 µM (inactive) | 33.3 µM (inactive) | > 100 µM (inactive) | > 100 µM (inactive) | > 100 µM (inactive) | – | > 100 µM (inactive) | 15.7 µM (inactive)
Clc1cc(Br)c2c3c(c(Br)cc(Cl)c13)C(Br)=C2Br | 18.6 | 21.2 µM (inactive) | > 100 µM (inactive) | – | 39.4 µM (inactive) | 55.8 µM (inactive) | > 100 µM (inactive) | 22.1 µM (inactive) | 19.7 µM (inactive) | 22.5 µM (inactive) | 19.5 µM (inactive) | – | 31 µM (inactive) | 23.2 µM (inactive) | > 100 µM (inactive) | 38.7 µM (inactive) | – | 27.9 µM (inactive) | > 100 µM (inactive) | 13.8 µM (inactive)
C[C@@H]1OC(=O)C[C@H]2CC(=O)N(CCC3CN(C(=O)c4ccccc4)c4ccccc43)C[C@@H]21 (some centres undefined) | > 100 | > 100 µM (inactive) | > 100 µM (inactive) | > 100 µM (inactive) | > 100 µM (inactive) | > 100 µM (inactive) | > 100 µM (inactive) | > 100 µM (inactive) | > 100 µM (inactive) | > 100 µM (inactive) | – | – | > 100 µM (inactive) | > 100 µM (inactive) | > 100 µM (inactive) | > 100 µM (inactive) | > 100 µM (inactive) | – | > 100 µM (inactive) | > 100 µM (inactive)
CCCCCC1=C2C(c3ccc(OC)cc3)=C(N)C(c3ccc(OC)cc3)=C3NC(=O)C(C=C1)C32 (centres undefined) | > 100 | 57.5 µM (inactive) | > 100 µM (inactive) | 32.1 µM (inactive) | 37.3 µM (inactive) | 29.7 µM (inactive) | 36.3 µM (inactive) | 25 µM (inactive) | > 100 µM (inactive) | 11.8 µM (inactive) | 74.8 µM (inactive) | 32.6 µM (inactive) | 30.3 µM (inactive) | 53.1 µM (inactive) | 43 µM (inactive) | 96.4 µM (inactive) | > 100 µM (inactive) | – | 41.7 µM (inactive) | 32.8 µM (inactive)
